According to patent US20260285850A1, “SUBSTITUTED OXAZOLIDINONES AND IMIDAZOLINONES AS HERBICIDES” (FMC CORPORATION, priority 2023, published 2026):

How the values were obtained:
Format in all cases: in vivo
[1] = tested on: goosegrass (Eleusine indica); assay: Test A postemergence application, visual injury rating 0-100; conditions: 1000 g ai/ha, 0 to 100 scale, 10 days
Summary of the method: (§1)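 Grow plants in loam soil blended with sand. Apply formulated compound (non-phytotoxic solvent, surfactant) as a directed soil spray before emergence, or to plants at the one- to two-leaf stage after emergence. Hold in greenhouse 10 days, then rate injury visually versus untreated controls on a 0-100 scale.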

[2] = tested on: blackgrass (Alopecurus myosuroides); assay: as above; conditions: Postemergence, 1000 g ai/ha, 0 to 100 scale, 10 days
Summary of the method: as §1

[3] = tested on: horseweed (Erigeron canadensis); assay: as above; conditions: Postemergence, 1000 g ai/ha, 0 to 100 scale, 10 days
Summary of the method: as §1

[4] = tested on: ragweed (common ragweed, Ambrosia artemisiifolia); assay: as above; conditions: Postemergence, 1000 g ai/ha, 0 to 100 scale, 10 days
Summary of the method: as §1

[5] = tested on: palmer (palmer amaranth, palmer pigweed, Amaranthus palmeri); assay: as above; conditions: Postemergence, 1000 g ai/ha, 0 to 100 scale, 10 days
Summary of the method: as §1

[6] = tested on: ryegrass, Italian (italian ryegrass, Lolium multiflorum); assay: as above; conditions: Postemergence, 1000 g ai/ha, 0 to 100 scale, 10 days
Summary of the method: as §1

[7] = tested on: foxtail, giant (giant foxtail, Setaria faberi); assay: as above; conditions: 1000 g ai/ha, 0 to 100 scale, 10 days
Summary of the method: as §1

kochia (Bassia scoparia) [8] = assay: as above; conditions: Postemergence, 1000 g ai/ha, 0 to 100 scale, 10 days
Summary of the method: as §1

rice (Oryza sativa) = assay: Test B flooded paddy test, visual plant response rating 0-100; conditions: 250 g ai/ha, Flood, applied to paddy water, evaluated after 13 days
Summary of the method: (§2)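 Compounds applied to standing paddy water (3 cm above soil, maintained for the test duration) on 2-leaf-stage plants; visual rating vs controls at 13 days, greenhouse.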

[9] = tested on: barnyardgrass (Echinochloa crusgalli); assay: as above; conditions: 250 g ai/ha, Flood, applied to paddy water, evaluated after 13 days
Summary of the method: as §2

[10] = tested on: sedge, umbrella (small-flower umbrella sedge, Cyperus difformis); assay: as above; conditions: 250 g ai/ha, Flood, applied to paddy water, evaluated after 13 days
Summary of the method: as §2

[11] = tested on: ducksalad (Heteranthera limosa); assay: as above; conditions: 250 g ai/ha, Flood, applied to paddy water, evaluated after 13 days
Summary of the method: as §2

[12] = tested on: goosegrass (Eleusine indica); assay: Test A preemergence soil spray, visual injury rating 0-100; conditions: 1000 g ai/ha, 10 days, 0 = no effect, 100 = complete control
Summary of the method: as §1

[13] = tested on: ragweed (common ragweed, Ambrosia artemisiifolia); assay: as above; conditions: 1000 g ai/ha, 10 days, 0 = no effect, 100 = complete control
Summary of the method: as §1

[14] = tested on: palmer (palmer amaranth, palmer pigweed, Amaranthus palmeri); assay: as above; conditions: 1000 g ai/ha, 10 days, 0 = no effect, 100 = complete control
Summary of the method: as §1

[15] = tested on: ryegrass, Italian (italian ryegrass, Lolium multiflorum); assay: as above; conditions: 1000 g ai/ha, 10 days, 0 = no effect, 100 = complete control
Summary of the method: as §1

[16] = tested on: foxtail, giant (giant foxtail, Setaria faberi); assay: as above; conditions: 1000 g ai/ha, 10 days, 0 = no effect, 100 = complete control
Summary of the method: as §1

kochia (Bassia scoparia) [17] = assay: as above; conditions: 1000 g ai/ha, 10 days, 0 = no effect, 100 = complete control
Summary of the method: as §1

[18] = tested on: galium (catchweed bedstraw, Galium aparine); assay: Test A postemergence application, visual injury rating 0-100; conditions: Postemergence, 1000 g ai/ha, 0 to 100 scale, 10 days
Summary of the method: as §1

[19] = tested on: blackgrass (Alopecurus myosuroides); assay: Test A preemergence soil spray, visual injury rating 0-100; conditions: 1000 g ai/ha, 10 days, 0 = no effect, 100 = complete control
Summary of the method: as §1

Row | Compound | Goosegrass plant response rating [1] | Blackgrass plant response rating [2] | Horseweed plant response rating [3] | Ragweed plant response rating [4] | Amaranth, Palmer plant response rating [5] | Ryegrass, Italian plant response rating [6] | Foxtail, Giant plant response rating [7] | Kochia plant response rating (kochia (Bassia scoparia) [8]) | Plant response rating, Rice (0 to 100 scale, 0 is no effect and 100 is complete control) (rice (Oryza sativa)) | Plant response rating, Barnyardgrass (0 to 100 scale, 0 is no effect and 100 is complete control) [9] | Plant response rating, Sedge, Umbrella (0 to 100 scale, 0 is no effect and 100 is complete control) [10] | Plant response rating, Ducksalad (0 to 100 scale, 0 is no effect and 100 is complete control) [11] | Goosegrass plant response rating (0 to 100 scale) [12] | Ragweed plant response rating (0 to 100 scale) [13] | Amaranth, Palmer / Pigweed, Palmer plant response rating (0 to 100 scale) [14] | Ryegrass, Italian plant response rating (0 to 100 scale) [15] | Foxtail, Giant plant response rating (0 to 100 scale) [16] | Kochia plant response rating (0 to 100 scale) (kochia (Bassia scoparia) [17]) | Galium plant response rating [18] | Blackgrass plant response rating (0 to 100 scale) [19]
1 | COC(=O)[C@@H]1C=C[C@H](NC(=O)C2(C)CN(c3cc(F)cc(F)c3)C(=O)O2)C1 (stereo partly drawn) [Compound 27, Methyl (1S,4R)-4-[[[3-(3,5-difluorophenyl)-5-methyl-2-oxo-5-oxazolidinyl]carbonyl]amino]-2-cyclopentene-1-carboxylate] | 90 | 90 | 80 | 80 | 90 | 100 | 90 | 80 | 35 | 90 | 50 | 85 | 100 | 50 | 100 | 100 | 100 | 100 |  | 
2 | CCOC(=O)C1C=CC(NC(=O)C2(C)CN(c3cc(F)cc(F)c3)C(=O)O2)C1 (centres unmarked) [Compound 28] | 90 | 100 | 80 | 70 | 90 | 80 | 90 | 80 | 70 | 85 | 65 | 75 | 100 | 80 | 100 | 100 | 100 | 100 | 70 | 90
